Results from patent US7022719B2, “Preventing and reversing the formation of advance glycosylation endproducts” (Alteon, Inc., priority 1995, dated 2006).
“And” between values parts separate entries of the source, which are not always exact repeats. Identical values can stand only once. Like-named read-outs stand apart in the source and are kept apart here. Blank lines part the entries; values can stand above or below the compound they belong to.

Assays:
[1] = system: cross-linking of glycated bovine serum albumin (AGE-BSA) to rat tail tendon collagen; assay: Cross-linking Inhibition Assay; conditions: for IC50: inhibition of AGE-BSA cross-linking to collagen-coated plate
Protocol: The following method was used to evaluate the ability of the compounds of the present invention to inhibit the cross-linking of glycated bovine serum albumin (AGE-BSA) to the rat tail tendon collagen-coated 96-well plate.
The blocking solution was removed from the wells by, washing the plate twice with PBS-'Tween 20 solution (0.05% Tween 20) using a NUNq-multiprobe or Dynatech ELISA-plate washer. Cross-linking of AGE-BSA (1 to 10 mg per well depending on the batch of AGE-BSA) to rat tail tendon collagen coated plate was performed with and without the testing ‘compound dissolved in PBS buffer at pH 7.4 at the desired concentrations by the, addition of 50 μl each of the AGE-BSA diluted in PBS or in the solution of test compound at 37° C. for 4 hours. Unbrowned BSA in PBS buffer with or without testing compound were added to the separate wells as the blanks. The un-cross-linked AGE-BSA was then removed by washing the wells three times with PBS-Tween buffer. The amount of AGE-BSA cross-linked to the tail tendon collagen-coated plate was then quantitated using a polyclonal antibody raised against AGE-RNase. After a one-hour incubation period, AGE antibody was removed by washing 4 times with PBS-Tween.
The bound AGE antibody was then detected with the addition of horseradish peroxidase-conjugated secondary antibody—goat anti-rabbit immunoglobulin and incubation for 30 minutes. […] The reaction was allowed for an additional 15 minutes and the absorbance was read at 410 nm in a Dynatech plate reader.

[2] = system: AGE-BSA crosslinked to collagen; assay: Cross-link Breaking Assay (sandwich enzyme immunoassay); assay type: biochemical; conditions: for Breaking Anti-AGE: anti-AGE antibody; for Breaking Anti-BSA: anti-BSA antibody
Protocol: The present invention also involves a novel sandwich enzyme immunoassay used to ascertain the ability of test compounds to “break” or reverse already formed advanced glycosylation endproducts by detecting the breaking of AGE (Advanced glycosylation endproduct) moieties from AGE-crosslinked protein. This assay comprises: • a) incubation of AGE-modified bovine serum albumin (AGE BSA) on collagen-coated wells of microtiter plates for a period of 2–6 hours' at a temperature of 37° C.; • b) washing of the wells with PBS-Tween; • c) application of the test compounds to the washed wells of step b; • d) incubation of the test compounds applied to the washed wells for an additional 12–24 hours at a temperature of about 37° C.; and • e) detection of the AGE-breaking using an antibody raised against AGE-ribonuclease or cross-link breaking with an antibody against BSA.
In order to ascertain the ability of the compounds of the instant invention to “break” or reverse already formed advanced glycosylation endproducts, a novel sandwich enzyme immunoassay was developed which detects breaking of AGE (Advanced glycosylation endproduct) moieties from AGE-crosslinked protein. The assay utilizes collagen-coated 96 well microtiter plates that are obtained commercially. […] Following an incubation period of 16 hours (37° C.) cross-link-breaking is detected using an antibody raised against AGE-ribonuclease or with an antibody against BSA. […] Details of the assay are as follows:
Methods Preparation of Solutions and Buffers • 1. AGE-BSA stock solutions were prepared as follows. Sodium phosphate buffer (0.4 M) was prepared by dissolving 6 grams of monobasic sodium phosphate in 100 ml of distilled water, 7 grams of dibasic sodium phosphate (0.4 M) in 100 ml of distilled water and adjusting the pH of the dibasic solution to 7.4 with the monobasic solution. Sodium azide (0.02 grams) was added per 100 ml volume to inhibit bacterial growth. The BSA solution was prepared as follows: 400 mg of Type V BSA (bovine serum albumin) was added for each ml of sodium phosphate buffer (above). A 400 mM glucose solution was prepared by dissolving 7.2 grams of dextrose in 100 ml of sodium phosphate buffer (above). The BSA and glucose solutions were mixed 1:1 and incubated at 37° C. for 12 weeks. The pH of the incubation mixture was monitored weekly and adjusted to pH 7.4 if necessary. After 12 weeks, the AGE-BSA solution was dialyzed against PBS for 48 hours with four buffer changes, each at a 1:500 ratio of solution to dialysis buffer. Protein concentration was determined by the micro-Lowry method. The AGE-BSA stock solution was aliquoted and stored at −20° C. […] Working solutions for crosslinking and breaking studies were prepared as follows. Test compounds were dissolved in PBS and the pH was adjusted to pH 7.4 if necessary. AGE-BSA stock solution was diluted in PBS to measure maximum crosslinking and in the inhibitor solution for testing inhibitory activity of compounds. The concentration of AGE-BSA necessary to achieve the optimum sensitivity was determined by initial titration of each lot of AGE-BSA. • 3. Wash buffer (“PBS-Tween”) was, prepared as follows. PBS was prepared by dissolving the following salts in one liter of distilled water: NaCl, 8 grams; KC1, 0.2 gram, KH2PO4. […] Tween-20 was added to a final concentration of 0.05% (vol/vol). • 4. Substrates for detection of secondary antibody binding were prepared by diluting the HRP substrate buffer 1:10 in distilled water and mixing with ABTS chromogen 1:50 just prior to use. Assay Procedures • 1. Biocoat plates were blocked with 300 μl of “Superbloc”. Plates were blocked for one hour at room temperature and were washed with PBS-Tween three times with the Dynatech platewasher before addition of test reagents. • 2. Each experiment was set up in the following manner. The first three wells of the Biocoat plate were used for the reagent blank.

tail tendon collagen = assay: CNBr peptide maps of tail tendon collagen from diabetic rats; assay type: biochemical, rat; conditions: tail tendon collagen of rats diabetic for 32 weeks, treated before cyanogen bromide digestion
cross-linked AGE-BSA = assay: Breaking of AGE-BSA polymer gel (SDS-PAGE); assay type: biochemical; conditions: 10 mm, overnight at 37° C.
Protocol: BSA and glucose solutions (100 ml each) were mixed in the one liter Coming sterile flask, screw-capped tight and incubated at 56° C. without shaking. The bottle was opened once a week to remove aliquots for testing. Reaction was continued for 9 weeks when AGE-BSA polymer formation was observed.
Pieces of AGE-BSA gel was washed with PBS until no more protein was leached in the supernatant, blotted dry with paper towels. About 50 mg of the washed gel was incubated either with PBS or 10 mm 3-(2-phenyl-2-oxoethyl)thiazolium bromide (ALT 766) overnight at 37° C. The supernatants were analyzed by SDS-PAGE and stained with coommassie blue.

[3] = system: aortic wall protein cross-linking; conditions: diabetic rats; cited from earlier work
[4] = system: immunoglobulin trapping in the kidney; conditions: in vivo; cited from earlier work
[5] = system: glomerular basement membrane thickness; conditions: streptozotocin-diabetic rat model; cited from earlier work
red blood cells = conditions: in vivo; cited from earlier work
[6] = system: IgG crosslinked to circulating red blood cells; assay: RBC-IgG Assay in streptozotocin-induced diabetic rats; assay type: in vivo, rat; conditions: diabetic rats dosed orally at 10 mg/kg body weight; 19 days
Protocol: The test compounds are administered to the test animals either orally or intraperitoneally, and the blood samples are collected are tested at various times, e.g. 4, 7 or 19 days, after administration to assess efficacy.
Blood is collected from the rats in heparinized tubes and spun at 2000×g for 10 minutes, and the plasma carefully removed. Then, about 5 ml of PBS per ml blood is added, gently mixed, and then spun again. The supernatant is then removed by aspiration. The wash is then repeated two more times. Then, 0.2 to 0.3 ml of packed RBC is withdrawn from the bottom of the tube, using a pipette, and added to the PBS to make a 1 to 10 dilution. This dilution is then further diluted 1 to 25 and 1 to 50 in PBS. • B. Assay Set Up. • 1. Warm Superbloc to 37° C. • 2. Take a plate of Multiscreen-HA, 0.45 u. Cellulose ester membrane-sealed 96 well plate (Millipore MARAS45). • 3. Wet the wells with 100 μl of PBS. • 4. Add 300 μl of superblock to each well and incubate at 37° C. for one hour. • 5. Place the plate on the Millititer Vacuum holder, turn on the vacuum and press the plate down once for tight hold. The liquids in the wells will be suctioned off. Wash the wells with 300 μl of PBS-Tween 0.05%. • 6. Turn off the vacuum and add 100 μl of PBS to each well. • 7. […] Read OD of the solution collected in the Coming plate on Dynatech Plate reader Sample filter 1 and Ref. filter 4. • 17. […]

[7] = detection with anti-BSA antibody, read-out: IC50 (mM) Anti-BSA

Compound: CCCCN(CCCC)C(=O)C[n+]1csc(CCO)c1C.[Br-] [3-(2-Dibutylamino-2-oxoethyl]-4-methyl-5-(2′-hydroxyethyl)-thiazolium bromide]
Relative Cross-link Inhibition (at 10 mM) [1]: 0.8% (10 mm) | Breaking Anti-AGE ([2]; at 10 mM): 25% | Breaking Anti-BSA ([2]; at 10 mM): 38% | melting point: 78 to 80 °C

Breaking Anti-AGE ([2]; at 10 mM): 4% and 14% | Breaking Anti-BSA ([2]; at 10 mM): 19% and 25% | melting point: 135 to 136 °C
Compound: COc1cccc(C[n+]2csc(CCO)c2C)c1.[Cl-] [3-(3′-methoxybenzyl)-4-methyl-5-(2′-hydroxyethyl)-thiazolium chloride]

Compound: C=Cc1sc[n+](CC(=O)c2ccccc2)c1C.[Br-] [3-(2-phenyl-2-oxoethyl)-4-methyl-5-vinyl-thiazolium bromide]
Breaking Anti-AGE ([2]; at 1 mM): 62% | Breaking Anti-BSA ([2]; at 1 mM): 82% | IC50 [2, 7]: 0.1 mM | melting point: 176 to 177 °C

Compound: CC(C)(C)C(=O)C[n+]1ccsc1.[Br-] [3-(2-tert-butyl-2-oxoethyl)-thiazolium bromide]
Breaking Anti-AGE ([2]; at 10 mM): 28% | Breaking Anti-BSA ([2]; at 10 mM): 37% | melting point: 211 to 212 °C

Compound: O=C(C[n+]1ccsc1)c1ccccc1.[Br-] [3-(2-phenyl-2-oxoethyl) thiazolium bromide]
IC50 [1]: 11100 µM | release of BSA from pre-formed AGE-mediated AGE-BSA/collagen complexes ([2]; AGE-BSA reacted with unmodified, native collagen): concentration-dependent release of BSA | Breaking Anti-AGE ([2]; concentration not given): 73% | Breaking Anti-BSA ([2]; concentration not given): 98% | IC50 ([2]; detection with anti-AGE antibody, read-out: IC50 (mM) Anti-AGE): 0.02 mM | IC50 [2, 7]: 0.014 mM | electrophoresis of CNBr-digested collagen after treatment (tail tendon collagen): indistinguishable from untreated, non-diabetic (control) collagen | breaking of cross-linked AGE-BSA (SDS-PAGE, FIG. 2) (cross-linked AGE-BSA): breaking of cross-linked AGE-BSA

Compound: N=C(N)NN [aminoguanidine]
aortic wall protein cross-linking [3]: diminishes | immunoglobulin trapping in the kidney [4]: reduction | increased glomerular basement membrane thickness [5]: prevented | diabetes-induced changes in the deformability of red blood cells (red blood cells): prevent

Compound: Cc1c(CCO)sc[n+]1Cc1ccccc1[N+](=O)[O-].[Br-] [3-(2′-nitrobenzyl)-4-methyl-5-(2′-hydroxyethyl)-thiazolium bromide]
Breaking Anti-AGE ([2]; at 10 mM): 11% | Breaking Anti-BSA ([2]; at 10 mM): 13% | melting point: 215 to 216 °C

Compound: COC(=O)C[n+]1csc(C)c1C.[Br-] [3-(2-methoxy-2-oxoethyl)-4,5-dimethylthiazolium bromide]
IC50 [1]: 480 µM | Breaking Anti-AGE ([2]; at 30 mM): 63% | Breaking Anti-BSA ([2]; at 30 mM): 47% | melting point: 184 to 185 °C (dec.)

Compound: Cc1c(CCO)sc[n+]1CC(=O)c1ccc2ccccc2c1.[Br-] [3-(2-(2′-naphthyl)-2-oxoethyl]-4-methyl-5-(2′-hydroxyethyl)-thiazolium bromide]
Relative Cross-link Inhibition (at 10 mM) [1]: 61% | Percent Inhibition (RBC-IgG) [6]: 40 ± 24 @ 19 days % | Breaking Anti-AGE ([2]; at 10 mM): 52% | Breaking Anti-BSA ([2]; at 10 mM): 61%
